# Data from PMC10587169, “Tuning aminopolycarboxylate chelators for efficient complexation of trivalent actinides” (Scientific Reports, 2023).
# Assay: Spectrophotometric titration
# Assay type: binding
# Conditions: spectrophotometrically measured, I = 2.0 M (Na+/H+)ClO4, T = 25 ± 1 °C, ±3σ
# Source text: Changes in the optical absorption characteristics of Nd^3+ were monitored using a Cary 6000i UV/Vis–NIR Spectrometer (Agilent) using 1 cm semimicro quartz cuvettes (Starna) in double-beam mode, where the ^4I9/2 → ^4G5/2, ^2G7/2 transitions[34] were monitored between 560 and 605 nm with a 0.075 nm interval and 1.0 nm spectral bandwidth. Changes in the optical absorption characteristics of ^243Am^3+ and ^248Cm^3+ were monitored using a Flame-S-VIS–NIR-ES spectrometer coupled to a DH-2000-BAL dual-mode light source (Ocean Optics) with a single 1 cm semimicro quartz cuvette (Starna). […] The complexation of Am^3+ with the ligands was monitored in the 495–525 nm spectral region, looking at the ^7F0′ → ^5L6′ transition[23],[35]. For Cm^3+, ligand complexation was monitored in the 365–410 nm spectral region, looking at the ^8S7/2 → ^2Ji (i = {15}, {13,9}, {11,17}) manifold transitions[24],[25],[36]. Changes in aqueous p[H^+] were monitored throughout each titration step using a Gran-calibrated Orion Ross Semi-micro glass electrode. […] Finally, the spectroscopic data was analyzed using the HypSpec software package[33],[37]. […]
# To further validate the competitive solvent extraction methodology the complexation of Am^3+ with H4octapa and Cm^3+ with H4pypa-peg was studied spectrophotometrically. […] The presence of both ligands induced new red-shifted absorption signatures in each monitored titration. […]
compound,measurement,value
"O=C(O)CN(Cc1cc(-c2cn(CCOCCOCCO)nn2)cc(CN(CC(=O)O)Cc2cccc(C(=O)O)n2)n1)Cc1cccc(C(=O)O)n1 [H4pypa-peg, 6,6'-((((4-(1-(2-(2-(2-hydroxyethoxy)ethoxy)ethyl)-1H-1,2,3-triazol-4-yl)pyridine-2,6-diyl)bis–(methylene))bis–((carboxymethyl)azanediyl))bis–(methylene)) dipicolinic acid]","logβ101 (ML), Cm3+",20.37 (2)
